Experiment [1] concerns beet armyworm (BAW; Spodoptera exigua: Lepidoptera). The experiment is described as follows: 128-well diet tray assay on beet armyworm (BAW 50). The format is in vivo. The settings on record: 128-well diet tray assay; 50 μg/cm^2 of test compound on diet; second instar BAW larvae; mortality class. In a few lines: (§1)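 Compound was layered onto artificial diet and dried, then infested: eggs for the 96-well test (12 μg per well, 29° C, dark) and 3–5 second instars for the 128-well tray (50 μg/cm^2, 25° C, 14:10 light-dark). Both ran six days before percent mortality was recorded and averaged across replicates or wells.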

Experiment [2] shares this test system. Put plainly: 96-well microtiter plate-based high throughput (HTS) diet bioassay on beet armyworm (BAW HTS). The format is in vivo. The settings on record: BAW eggs, 12 μg test compound per well, mortality at 6 d post-treatment, mortality class. In a few lines: as §1
Setting [3] is: 96-well microtiter plate HTS diet assay.

Each structure is given as a SMILES string.

`CCOC(=O)C1C(c2ccc(/C=N/O[C@@H]3O[C@@H](C)[C@H](OC)[C@@H](OC)[C@H]3OC)cc2)=NN(c2ccc(OC(F)(F)F)cc2)C1C(=O)OCC` (stereo partly drawn) [Compound 53]: in experiment [1], the “BAW 50 ug/cm2” value is “A (the compound was tested and at least 50 percent mortality was observed)”. Besides, the “BAW HTS” value in experiment [2] (96-well HTS diet bioassay) was “A (the compound was tested and at least 50 percent mortality was observed)”; in experiment [2] (setting [3]), “A (the compound was tested and at least 50 percent mortality was observed)”.

As to `COC(=O)C1CC(c2ccc(/C=N/O[C@@H]3O[C@@H](C)[C@H](OC)[C@@H](OC)[C@H]3OC)cc2)=NN1c1ccc(OC(F)(F)F)cc1` (stereo partly drawn) [Compound 54], the “BAW 50 ug/cm2” value in experiment [1] is “A (the compound was tested and at least 50 percent mortality was observed)”. For the same compound, the “BAW HTS” value in experiment [2] (96-well HTS diet bioassay) is “A (the compound was tested and at least 50 percent mortality was observed)”; in experiment [2] (setting [3]) it was “A (the compound was tested and at least 50 percent mortality was observed)”.

For `CCCC1C(c2ccc(/C=N/O[C@@H]3O[C@@H](C)[C@H](OC)[C@@H](OC)[C@H]3OC)cc2)=NN(c2ccc(OC(F)(F)F)cc2)C1C(=O)OCC` (stereo partly drawn) [Compound 55], in experiment [1], the “BAW 50 ug/cm2” value was “A (the compound was tested and at least 50 percent mortality was observed)”. For the same compound, the “BAW HTS” value in experiment [2] (96-well HTS diet bioassay) was “A (the compound was tested and at least 50 percent mortality was observed)”; in experiment [2] (setting [3]), “A (the compound was tested and at least 50 percent mortality was observed)”.

`CCOC(=O)C1C(C)C(c2ccc(/C=N/O[C@@H]3O[C@@H](C)[C@H](OC)[C@@H](OC)[C@H]3OC)cc2)=NN1c1ccc(OC(F)(F)F)cc1` (stereo partly drawn) [Compound 56]: the “BAW 50 ug/cm2” value in experiment [1] was “A (the compound was tested and at least 50 percent mortality was observed)”. In addition, the “BAW HTS” value is “A (the compound was tested and at least 50 percent mortality was observed)” in experiment [2] (96-well HTS diet bioassay); “A (the compound was tested and at least 50 percent mortality was observed)” in experiment [2] (setting [3]).

As for `COC1C(C)OC(ON=Cc2ccc(-n3cnc(-c4ccc(C(F)(F)F)cc4)c3)cc2)C(OC)C1OC` (stereo not drawn) [Compound 57], in experiment [1], the “BAW 50 ug/cm2” value was “A (the compound was tested and at least 50 percent mortality was observed)”. The “BAW HTS” value in experiment [2] (96-well HTS diet bioassay) is “A (the compound was tested and at least 50 percent mortality was observed)”; in experiment [2] (setting [3]) it was “A (the compound was tested and at least 50 percent mortality was observed)”.

As to `COC1C(C)OC(ON=Cc2cccc(-c3cn(-c4ccc(OC(F)(F)F)cc4)cn3)c2)C(OC)C1OC` (stereo not drawn) [Compound 58], in experiment [1], the “BAW 50 ug/cm2” value is “A (the compound was tested and at least 50 percent mortality was observed)”. The “BAW HTS” value in experiment [2] (96-well HTS diet bioassay) was “A (the compound was tested and at least 50 percent mortality was observed)”; in experiment [2] (setting [3]), “A (the compound was tested and at least 50 percent mortality was observed)”.

Turning to `COC1C(C)OC(ON=Cc2ccc(-c3cn(-c4ccc(OC(F)(F)F)c(C(F)(F)F)c4)cn3)cc2)C(OC)C1OC` (stereo not drawn) [Compound 59], the “BAW 50 ug/cm2” value in experiment [1] was “A (the compound was tested and at least 50 percent mortality was observed)”. In addition, the “BAW HTS” value in experiment [2] (96-well HTS diet bioassay) was “A (the compound was tested and at least 50 percent mortality was observed)”; in experiment [2] (setting [3]) it was “A (the compound was tested and at least 50 percent mortality was observed)”.

For the compound `CCCc1ccc(-c2cc(-c3ccc(C=NOC4OC(C)C(OC)C(OC)C4OC)cc3)no2)cc1` (stereo not drawn) [Compound 60], in experiment [1], the “BAW 50 ug/cm2” value is “A (the compound was tested and at least 50 percent mortality was observed)”. Further, the “BAW HTS” value was “A (the compound was tested and at least 50 percent mortality was observed)” in experiment [2] (96-well HTS diet bioassay); “A (the compound was tested and at least 50 percent mortality was observed)” in experiment [2] (setting [3]).

Regarding `CCCCOc1ccc(-c2cc(-c3ccc(C=NOC4OC(C)C(OC)C(OC)C4OC)cc3)no2)cc1` (stereo not drawn) [Compound 61], the “BAW 50 ug/cm2” value in experiment [1] is “A (the compound was tested and at least 50 percent mortality was observed)”. The “BAW HTS” value in experiment [2] (96-well HTS diet bioassay) is “A (the compound was tested and at least 50 percent mortality was observed)”; in experiment [2] (setting [3]), “A (the compound was tested and at least 50 percent mortality was observed)”.

The values are drawn from US8178658B2 (Dow AgroSciences, LLC, priority 2008, dated 2012).
